Holding throughout (assay type): cell-based
The target of one assay is T1, human TLR9 (Homo sapiens, UniProt Q9NR96).
T1 construct: host or cells: HEK-Blue cells (HEK293-derived reporter line)
T1 sequence (Q9NR96 26-1032): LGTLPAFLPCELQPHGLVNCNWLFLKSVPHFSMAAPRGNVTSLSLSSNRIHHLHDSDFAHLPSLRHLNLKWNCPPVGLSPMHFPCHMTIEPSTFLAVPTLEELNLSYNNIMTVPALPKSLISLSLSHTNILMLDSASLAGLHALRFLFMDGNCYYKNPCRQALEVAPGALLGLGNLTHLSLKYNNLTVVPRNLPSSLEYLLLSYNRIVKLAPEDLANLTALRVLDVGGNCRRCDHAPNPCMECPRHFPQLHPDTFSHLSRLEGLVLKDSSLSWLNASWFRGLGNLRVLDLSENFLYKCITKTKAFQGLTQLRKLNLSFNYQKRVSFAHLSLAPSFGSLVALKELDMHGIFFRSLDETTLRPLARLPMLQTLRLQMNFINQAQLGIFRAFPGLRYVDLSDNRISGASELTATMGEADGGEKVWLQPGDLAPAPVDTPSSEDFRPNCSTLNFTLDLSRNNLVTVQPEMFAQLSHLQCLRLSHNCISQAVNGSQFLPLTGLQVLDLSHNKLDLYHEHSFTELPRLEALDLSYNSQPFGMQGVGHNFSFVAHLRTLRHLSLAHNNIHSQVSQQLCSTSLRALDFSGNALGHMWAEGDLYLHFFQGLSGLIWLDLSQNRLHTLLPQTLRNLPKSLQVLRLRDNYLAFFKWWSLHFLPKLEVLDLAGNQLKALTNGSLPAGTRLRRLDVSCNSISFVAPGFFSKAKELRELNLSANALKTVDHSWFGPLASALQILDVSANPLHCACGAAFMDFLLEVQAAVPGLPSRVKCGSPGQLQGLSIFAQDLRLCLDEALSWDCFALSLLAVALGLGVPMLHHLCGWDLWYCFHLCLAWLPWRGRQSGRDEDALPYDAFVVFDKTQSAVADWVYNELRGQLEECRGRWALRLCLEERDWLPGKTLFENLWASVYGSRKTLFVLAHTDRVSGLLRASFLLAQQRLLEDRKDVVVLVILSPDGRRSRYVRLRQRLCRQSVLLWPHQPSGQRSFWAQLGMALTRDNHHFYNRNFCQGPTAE
Put plainly: TLR9 inhibition reporter assay (HEK-Blue cells, secreted embryonic alkaline phosphatase reporter). The procedure, abridged:
(§1)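 Cells seeded at 15000 (TLR7), 20,000 (TLR8) or 25,000 (TLR9) per well; compound 0.05 nM–50 μM, 30 min RT pre-incubation. Agonists: gardiquimod 7.5 μM, R848 15.9 μM, ODN2006 5 nM respectively. 22 h, 37 °C; SEAP via HEK-Blue Detection; % inhibition vs agonist+DMSO and known-inhibitor wells.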

In another assay the target is T2, human TLR7 (Homo sapiens, UniProt Q9NYK1).
T2 construct: host or cells: HEK-Blue cells (HEK293-derived reporter line)
T2 sequence (Q9NYK1 27-1049): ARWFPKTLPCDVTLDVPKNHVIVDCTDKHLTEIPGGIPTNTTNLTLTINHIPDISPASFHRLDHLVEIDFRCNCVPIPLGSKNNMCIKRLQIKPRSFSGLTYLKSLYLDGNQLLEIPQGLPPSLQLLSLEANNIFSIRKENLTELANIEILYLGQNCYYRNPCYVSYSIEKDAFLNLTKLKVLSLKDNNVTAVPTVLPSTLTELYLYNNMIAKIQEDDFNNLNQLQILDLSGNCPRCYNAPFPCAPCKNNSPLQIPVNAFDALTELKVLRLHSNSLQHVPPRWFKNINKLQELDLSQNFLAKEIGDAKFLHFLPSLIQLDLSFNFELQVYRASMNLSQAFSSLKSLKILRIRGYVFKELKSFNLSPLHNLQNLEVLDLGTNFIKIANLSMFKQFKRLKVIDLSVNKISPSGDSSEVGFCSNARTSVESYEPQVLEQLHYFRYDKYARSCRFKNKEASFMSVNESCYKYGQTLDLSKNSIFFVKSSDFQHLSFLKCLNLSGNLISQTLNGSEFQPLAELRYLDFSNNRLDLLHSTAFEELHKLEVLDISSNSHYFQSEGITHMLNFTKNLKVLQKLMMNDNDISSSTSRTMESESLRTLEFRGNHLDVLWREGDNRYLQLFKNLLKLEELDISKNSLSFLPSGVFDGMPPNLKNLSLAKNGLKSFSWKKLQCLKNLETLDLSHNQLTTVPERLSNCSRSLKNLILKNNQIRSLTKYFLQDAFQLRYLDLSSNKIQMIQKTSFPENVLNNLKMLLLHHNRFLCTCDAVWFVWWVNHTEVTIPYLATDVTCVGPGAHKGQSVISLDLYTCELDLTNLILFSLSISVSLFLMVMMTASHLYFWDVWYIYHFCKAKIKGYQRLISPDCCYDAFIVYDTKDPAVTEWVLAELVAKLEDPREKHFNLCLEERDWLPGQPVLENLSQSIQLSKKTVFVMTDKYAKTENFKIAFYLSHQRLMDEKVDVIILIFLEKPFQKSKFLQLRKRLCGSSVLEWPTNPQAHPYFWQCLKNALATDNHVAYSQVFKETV
Put plainly: TLR7 inhibition reporter assay (HEK-Blue cells, secreted embryonic alkaline phosphatase reporter). The settings on record: HEK-Blue cells overexpressing human TLR7, stimulated with gardiquimod 7.5 μM; read-out: TLR 7 IC50. Summed up:
as §1
(In general: A reporter such as luciferase makes a cellular process visible.)

The target in another assay is T3, human TLR8 (Homo sapiens, UniProt Q9NR97).
T3 construct: host or cells: HEK-Blue cells (HEK293-derived reporter line)
T3 sequence (Q9NR97 27-1041): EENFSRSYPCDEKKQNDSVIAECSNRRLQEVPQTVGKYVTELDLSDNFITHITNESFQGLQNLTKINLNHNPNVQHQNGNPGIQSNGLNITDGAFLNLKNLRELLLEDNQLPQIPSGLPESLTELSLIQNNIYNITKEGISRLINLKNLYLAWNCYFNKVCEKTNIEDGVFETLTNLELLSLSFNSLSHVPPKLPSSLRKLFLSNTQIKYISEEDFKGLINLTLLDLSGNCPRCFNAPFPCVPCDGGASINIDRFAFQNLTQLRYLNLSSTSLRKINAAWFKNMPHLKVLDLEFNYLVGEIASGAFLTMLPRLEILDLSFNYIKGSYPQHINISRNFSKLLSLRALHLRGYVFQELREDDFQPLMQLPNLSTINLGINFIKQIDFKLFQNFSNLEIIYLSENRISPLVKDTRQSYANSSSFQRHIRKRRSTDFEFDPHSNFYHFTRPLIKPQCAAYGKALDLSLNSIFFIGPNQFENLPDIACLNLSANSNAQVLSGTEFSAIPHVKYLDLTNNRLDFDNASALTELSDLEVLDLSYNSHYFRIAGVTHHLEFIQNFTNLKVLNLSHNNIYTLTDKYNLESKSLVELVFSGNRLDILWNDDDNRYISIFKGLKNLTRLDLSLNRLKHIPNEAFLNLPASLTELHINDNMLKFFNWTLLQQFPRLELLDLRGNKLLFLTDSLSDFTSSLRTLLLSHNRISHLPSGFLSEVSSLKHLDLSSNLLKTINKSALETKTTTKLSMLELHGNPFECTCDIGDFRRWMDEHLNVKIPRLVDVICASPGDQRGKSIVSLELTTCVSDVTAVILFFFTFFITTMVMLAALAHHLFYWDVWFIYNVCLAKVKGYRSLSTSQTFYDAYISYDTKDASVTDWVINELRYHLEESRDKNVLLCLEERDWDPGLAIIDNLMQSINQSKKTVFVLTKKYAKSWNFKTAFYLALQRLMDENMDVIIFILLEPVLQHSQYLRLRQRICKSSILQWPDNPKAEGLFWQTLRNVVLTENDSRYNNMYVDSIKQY
Briefly: TLR8 inhibition reporter assay (HEK-Blue cells, secreted embryonic alkaline phosphatase reporter). The settings on record: HEK-Blue cells overexpressing human TLR8, stimulated with R848 15.9 μM; read-out: TLR 8 IC50. The procedure, abridged: as §1

Setting [1] is: HEK-Blue cells overexpressing human TLR9, stimulated with ODN2006 5 nM, read-out: TLR 9 IC50.

A word on the IC50: it is the point on the concentration scale where inhibition reaches its midpoint.

The structures appear in SMILES notation. Like-named read-outs stand apart in the source and are kept apart here.

In the case of `COc1ccc(-c2nc3c(C)cc(C4CCN(C5CC6CCC(C5)N6C5CCOCC5)CC4)cc3n2C)cc1OC` (single isomer, unassigned) [Example 166, 2-(3,4-dimethoxyphenyl)-1,4-dimethyl-6-(1-(8-(tetrahydro-2H-pyran-4-yl)-8-azabicyclo[3.2.1]octan-3-yl)piperidin-4-yl)-1H-benzo[d]imidazole], the IC50 at human TLR9 is 40 nM; at human TLR9 (setting [1]), 40 nM; on human TLR7, 4700 nM; on human TLR8, more than 25000 nM.
On to `COc1ccc(-c2nc3c(C)cc(C4CCN(C5CC6CCC(C5)N6C5CCOCC5)CC4)cc3n2C)cc1OC` (single isomer, unassigned) [Example 167, 2-(3,4-dimethoxyphenyl)-1,4-dimethyl-6-(1-(8-(tetrahydro-2H-pyran-4-yl)-8-azabicyclo[3.2.1]octan-3-yl)piperidin-4-yl)-1H-benzo[d]imidazole], for which the IC50 on human TLR9 is 790 nM; on human TLR9 (setting [1]), 788 nM; at human TLR7, more than 25000 nM; on human TLR8, more than 25000 nM.
As for `COCCN1C2CCC1CC(N1CCC(c3cc(C)c4nc(-c5ccc(OC)c(OC)c5)n(C)c4c3)CC1)C2` (single isomer, unassigned) [Example 168, 2-(3,4-dimethoxyphenyl)-6-(1-(8-(2-methoxyethyl)-8-azabicyclo[3.2.1]octan-3-yl)piperidin-4-yl)-1,4-dimethyl-1H-benzo[d]imidazole], the IC50 was 51 nM at human TLR9, 51 nM at human TLR9 (setting [1]), 14000 nM on human TLR7 and more than 25000 nM on human TLR8.
Consider `COCCN1C2CCC1CC(N1CCC(c3cc(C)c4nc(-c5ccc(OC)c(OC)c5)n(C)c4c3)CC1)C2` (single isomer, unassigned) [Example 169, 2-(3,4-dimethoxyphenyl)-6-(1-(8-(2-methoxyethyl)-8-azabicyclo[3.2.1]octan-3-yl)piperidin-4-yl)-1,4-dimethyl-1H-benzo[d]imidazole], for which the IC50 on human TLR9 was 200 nM; on human TLR9 (setting [1]), 204 nM; on human TLR7, 10500 nM; at human TLR8 it was 23700 nM.
On to `CC(C)CN1C2CCC1CC(N1CCC(c3ccc4c(nc(-c5ccc(S(C)(=O)=O)cc5)n4C)c3F)CC1)C2` (single isomer, unassigned) [Example 189, 4-fluoro-5-(1-(8-isobutyl-8-azabicyclo[3.2.1]octan-3-yl)piperidin-4-yl)-1-methyl-2-(4-(methylsulfonyl)phenyl)-1H-benzo[d]imidazole], for which the IC50 at human TLR9 is 150 nM; on human TLR9 (setting [1]), 154 nM; at human TLR7 it was more than 50000 nM; on human TLR8, more than 50000 nM.
On to `CC(C)CN1C2CCC1CC(N1CCC(c3ccc4c(nc(-c5ccc(S(C)(=O)=O)cc5)n4C)c3F)CC1)C2` (single isomer, unassigned) [Example 190, 4-fluoro-5-(1-(8-isobutyl-8-azabicyclo[3.2.1]octan-3-yl)piperidin-4-yl)-1-methyl-2-(4-(methylsulfonyl)phenyl)-1H-benzo[d]imidazole], for which the IC50 against human TLR9 is 2600 nM; at human TLR9 (setting [1]), 2630 nM; at human TLR7, more than 50000 nM; at human TLR8 it was more than 50000 nM.
Consider `Cn1c(-c2ccc(S(C)(=O)=O)cc2)nc2c(F)c(C3CCN(C4CC5CCC(C4)N5CC4CC4)CC3)ccc21` (single isomer, unassigned) [Example 191, 5-(1-(8-(cyclopropylmethyl)-8-azabicyclo[3.2.1]octan-3-yl)piperidin-4-yl)-4-fluoro-1-methyl-2-(4-(methylsulfonyl)phenyl)-1H-benzo[d]imidazole], for which the half-maximal inhibitory concentration (IC50) at human TLR9 was 96 nM; at human TLR9 (setting [1]), 96 nM; at human TLR7 it was 3800 nM; on human TLR8 it was more than 50000 nM.
With `Cn1c(-c2ccc(S(C)(=O)=O)cc2)nc2c(F)c(C3CCN(C4CC5CCC(C4)N5CC4CC4)CC3)ccc21` (single isomer, unassigned) [Example 192, 5-(1-(8-(cyclopropylmethyl)-8-azabicyclo[3.2.1]octan-3-yl)piperidin-4-yl)-4-fluoro-1-methyl-2-(4-(methylsulfonyl)phenyl)-1H-benzo[d]imidazole], the IC50 against human TLR9 was 190 nM; at human TLR9 (setting [1]) it was 186 nM; on human TLR7, more than 50000 nM; at human TLR8, more than 50000 nM.
For the compound `Cn1c(-c2ccc(S(C)(=O)=O)cc2)nc2c(F)c(C3CCN(C4CC5CCC(C4)N5CC4COC4)CC3)ccc21` (single isomer, unassigned) [Example 193, 4-fluoro-1-methyl-2-(4-(methylsulfonyl)phenyl)-5-(1-(8-(oxetan-3-ylmethyl)-8-azabicyclo[3.2.1]octan-3-yl)piperidin-4-yl)-1H-benzo[d]imidazole], the IC50 is 82 nM against human TLR9, 82 nM on human TLR9 (setting [1]), more than 50000 nM on human TLR7 and more than 50000 nM on human TLR8.

The record behind these values is patent US12492188B2, “1H-benzo[D]imidazole derivatives as TLR9 inhibitors for the treatment of fibrosis” (BRISTOL-MYERS SQUIBB COMPANY, priority 2020, dated 2025).
